According to patent publication US6417180B1, “Zinc finger-reactive antimicrobial compounds” (priority 1998, dated 2002):
pIC50: −log10 of the molar value.

Key:
B. subtilis pol III [1] = target: T1, B. subtilis pol III (Bacillus subtilis, UniProt P13267); experiment: 65Zn release from labeled pol III by MMTS (Sephadex G-25 separation); assay type: biochemical; conditions: 60 minutes, 0° C.
T1 construct: the so-called wild-type pol III, was identical to the native enzyme found in B. subtilis; made in house; host or cells: E. coli AR120, plasmid pKC30/polC
Procedure: Pol III was labeled by growing bacteria transformed with the above-described pol III expression plasmids in the presence of ^65Zn. LB expression medium was first depleted of divalent trace metals by mixing the medium with 0.3 volume of Chelex-Na (Bio-Rad) for 24 hours at 0° C. The depleted medium was then supplemented with 0.1 mM MgCl2 to support a level of E. coli growth compatible with pol III expression. E. coli AR120 transformed with the pKC30/polC vector was grown at 30° C. in this magnesium-supplemented medium. When the culture reached an absorbance of 0.5 ([…], 1 cm path length), 10 ml of the culture was added to one liter of the zinc-depleted, magnesium-supplemented medium, which further included [^65Zn]Cl2 (New England Nuclear; specific activity of 2.7 mCi/μmole) to a radioactivity level of 1.1 μCi/ml medium. Incubation was continued until the culture reached an absorbance of 0.75. […]
To remove non-specifically bound ^65Zn and exogenous thiols, the pol III was dialyzed as described in Example 1 above, and the labeled protein was further dialyzed with HNE buffer (10 mM HEPES [pH 7.6], 100 mM NaCl, and 0.1 mM EDTA) to remove exogenous thiols. […] The fraction eluted with each step was analyzed by liquid scintillation counting to determine the amount of protein-bound ^65Zn (void volume) and the amount of free ^65Zn (included volume).

B. subtilis pol III [2] = target: T1, B. subtilis pol III; experiment: Radioactive zinc content of 65Zn-labeled pol III after treatment with zinc-removing compound; assay type: biochemical; conditions: 0.2 mM MMTS, one hour
Procedure: (§1) 0.2 nanomoles of pol III was mixed in 0.1 ml of HNE buffer (10 mM HEPES, 100 mM NaCl, and 10% glycerol [pH 7.6]) containing 0.3 mM Compound 20, and the mixture was incubated at 25° C. for one hour. The pol III was removed from Compound 20 by passage through a Sephadex G-25 spin column, and the enzyme assayed for polymerase activity and for its content of radioactive zinc (see procedures described above).
Ejection of Zinc by Treatment of Coordinating Thiolates with MMTS. The compound MMTS is described in Example 2 above. 0.2 nanomoles of ^65Zn-labeled B. subtilis pol III was incubated with HNE buffer with or without 0.2 mM MMTS for one hour, and the samples assayed as described for the pol III treatment with Compound 20.

B. subtilis pol III [3] = target: T1, B. subtilis pol III; experiment: Reconstitution of zinc-deficient inactive polymerase with ZnCl2/DTT; assay type: biochemical; conditions: pol III inactivated by MMTS; 0.01 mM ZnCl2 and 0.01 mM DTT, 25° C., 12 hours
Procedure: At 30 minute intervals, samples were removed and assayed for pol activity.

B. subtilis pol III [4] = target: T1, B. subtilis pol III; experiment: Polymerase activity of pol III after treatment with zinc-removing compound; assay type: biochemical; conditions: 0.2 mM MMTS, one hour
Procedure: (§2) Polymerase activity was determined as described in Barnes et al., Meth. Enzymol., 262:35-42, 1995, using activated calf thymus DNA (Worthington) as template and primer and [^3H]dTTP as the substrate. One unit of polymerase activity was defined as the activity which catalyzes the incorporation of one nanomole of [^3H]dTMP in 10 minutes at 30° C. For determination of the KM of the polymerase for DNA, the concentration of activated calf thymus DNA was varied during assay from 0-0.8 mg/ml. For determination of the KM for dGTP, incorporation of [^3H] dTMP was followed as a function of dGTP concentration (0-0.5 mM), and the values for incorporation were corrected for dGTP-independent, background incorporation.
as §1
Ejection of Zinc by Treatment of Coordinating Thiolates with MMTS. The compound MMTS is described in Example 2 above. […]

S. aureus = conditions: 40 mg/kg intravenously every four hours; cited from earlier work
[5] = test system: methicillin-sensitive S. aureus (ATCC No. 29213); experiment: Thigh infection in neutropenic ICR/Swiss mice (Example 10); assay type: in vivo; conditions: 40 mg/kg i.v. at 2, 6, 12, 18 hours post-infection; 24 hours after infection; 100× diluted homogenate; saline controls about 500
Procedure: Before infection with test bacteria, six six-week old pathogen-free ICR/Swiss mice are rendered neutropenic (less than 100 neutrophils per milliliter of blood) by intraperitoneal injection of two doses of cyclophosphamide. The first injection is made at 150 mg/kg four days before bacterial infection, and the second injection is made at 100 mg/kg one day before bacterial infection. Neutropenia is induced so that a wide variety of bacteria can be used for the subsequent infection.
Bacterial infection for each mouse is performed by inoculating 10^6 cfu of methicillin-sensitive S. aureus (ATCC No. 29213) in 100 μl of media into the right thigh muscle. The compound and control mixtures are administered intravenously into the tail vein of the animal at 2, 6, 12, and 18 hours post-infection. Two mice received 50 μl of a negative control mixture of physiological saline at each time point. Another pair of mice received a positive control mixture of 40 mg/kg body weight vancomycin in saline at each time point. The last two mice received 40 mg/kg body weight of the candidate compound in saline at each time point.
At 24 hours after infection, all mice are sacrificed, and the right thigh muscle of each mice removed. […] After incubating at 37° C. for 24 hours, the number of colonies on each plate is counted. […]

[6] = target: T2, C915A B. subtilis pol III (Bacillus subtilis, UniProt P13267, C915A); experiment: TMAU sensitivity of polymerase activity, C915A mutant; assay type: biochemical; conditions: C915A enzyme
T2 construct: Each of the three full-length mutants (C912A, C915A, and C940A); made in house; host or cells: E. coli SG101, plasmid pSGA04
Procedure: as §2
(§3) An oligonucleotide-based system (Altered Sites, Promega) was used to introduce the mutations into the segment of polC encoding the putative zinc finger. […]
(§4) Each of the five purified mutant enzymes of Table I was analyzed directly, in its native, undialyzed form, to assess the impact of the respective mutation on (1) exonuclease and polymerase activity; (2) affinity for exonuclease and polymerase substrates; and (3) sensitivity of the polymerase activity to TMAU, a dGTP analog which inhibits the pol III of Gram-positive eubacteria (Wright et al., Pharmac. Therap., 47:447-497, 1990).

[7] = target: T3, C940A B. subtilis pol III (Bacillus subtilis, UniProt P13267, C940A); experiment: TMAU sensitivity of polymerase activity, C940A mutant; assay type: biochemical; conditions: C940A enzyme
T3 construct: Each of the three full-length mutants (C912A, C915A, and C940A); made in house; host or cells: E. coli SG101, plasmid pSGA04
Procedure: as §2, §3, §4

[8] = target: T4, Wildtype B. subtilis pol III (Bacillus subtilis, UniProt P13267); experiment: TMAU sensitivity of polymerase activity, wild-type enzyme; assay type: biochemical
T4 construct: made in house; host or cells: E. coli SG101, plasmid pSGA04
Procedure: as §2
Tagged wild-type and mutant forms of pol III were obtained at greater than 95% homogeneity using the procedure of Example 1 above. The proteins were then subjected to EDTA-based dialysis, and analyzed for zinc content as described in Example 1.
as §4

[9] = target: T5, H909A B. subtilis pol III (Bacillus subtilis, UniProt P13267, H909A); experiment: TMAU sensitivity of polymerase activity, H909A mutant; assay type: biochemical; conditions: H909A enzyme
T5 construct: The H909A enzyme, although expressed as a full-length protein, was not readily produced in an amount sufficient for metal analysis; made in house; host or cells: E. coli SG101, plasmid pSGA04
Procedure: as §2, §3, §4

CSS(C)(=O)=O [MMTS, methylmethanethio-sulfonate]
65Zn label released from pol III (B. subtilis pol III [1]; 0.01 mM MMTS): about 50% | 65Zn label released from pol III (B. subtilis pol III [1]; three higher concentrations (0.03, 0.10, 0.3 mM MMTS)): greater than 95% | radioactive zinc content relative to control (B. subtilis pol III [2]): less than 2 % of the control | reactivation of pol activity after treatment (B. subtilis pol III [3]): No reactivation | pol III activity relative to control (B. subtilis pol III [4]): less than 1 % of the control

CN[C@H](CC(C)C)C(=O)N[C@H]1C(=O)N[C@@H](CC(N)=O)C(=O)N[C@H]2C(=O)N[C@H]3C(=O)N[C@H](C(=O)N[C@H](C(=O)O)c4cc(O)cc(O)c4-c4cc3ccc4O)[C@H](O)c3ccc(c(Cl)c3)Oc3cc2cc(c3O[C@@H]2O[C@H](CO)[C@@H](O)[C@H](O)[C@H]2O[C@H]2C[C@](C)(N)[C@H](O)[C@H](C)O2)Oc2ccc(cc2Cl)[C@H]1O [vancomycin]
reduction in S. aureus proliferation compared with control thighs (S. aureus): two to four | colonies from thigh muscle homogenate [5]: about 40 colonies on each plate

O=c1cc(Nc2ccc3c(c2)CCC3)[nH]c(=O)[nH]1 [TMAU]
pIC50 [6]: 5.54 | pIC50 [7]: 5.40 | pIC50 [8]: 5.39 | pIC50 [9]: 5.40
